Laboratory results from patent US20250129370A1, “METHOD FOR REDUCING HEPATIC TRIGLYCERIDES” (ADAERATA, LIMITED PARTNERSHIP, priority 2022, published 2025).

How the values were obtained:
PC7 = PC7 shedding of hTfR1 into the media, Huh7 cells; format: cell-based, human; conditions: Huh7, 2×, 3× and 5× miR-125a-5p vector
Description: FIGS. 32A-B Western blot (FIG. 32A) and quantitative (FIG. 32B) analysis of human PC7 and TFR1 expression in Huh7 cells, in which miR-125-5p was overexpressed. […] X stands for vector DNA fold for miR-125-5p compared to vector expressing PC7. Because both PC7-V5 and hTfR1-V5 were V5-tagged, the WB using a mAb-V5 reflects the expression of both proteins.
In the next step, the effect of miR-125a-5p on PC7 function was determined. First, the miR-125a-5p-overexpressing vector and its related mock plasmids were co-transfected with the pIRES vector (Invitrogen, USA), containing the full length of cDNA encoding the PCSK7 mRNA with the complete 3′-UTR in Huh7 cells. […] Thereafter, the impact of miR-125a-5p on the enzymatic function of PC7 was assessed by co-transfecting Huh7 cells with the miR-125a-5p-overexpressing vector, with that coding for the full length of PCSK7, and a plasmid encoding hTfR1 (Guillemot et al., 2013; Durand et al., 2020). […]
Subsequently, proteins were isolated with an ice-cold RIPA buffer (1×), comprising 50 mM of Tris hydrochloride (pH 8), 150 mM of sodium chloride, 0.1% sodium dodecyl sulfate, 1% Nonidet P40, 0.25% sodium deoxycholate, and a cocktail of protease inhibitors (Roche, Oakville, ON, Canada). […] Subsequently, immunoreactive bands (the signal) were visualized with an enhanced chemiluminescent reaction kit (Bio-Rad, USA) and recorded via chemiluminescence. […]

[1] = test system: 3′-UTR of human PCSK7 mRNAs; assay: Dual-luciferase reporter assay, wild-type PCSK7 3′-UTR, HEK293T cells; format: cell-based; conditions: wild-type PCSK7 3′-UTR psiCHECK-2, HEK293T
Text: The interactions between the miRNAs and their probable targets on PCSK7 were explored by cloning the potential target regions in psiCHECK-2™ (Promega, USA), a luciferase reporter vector. In psiCHECK-2™, hRluc, the Renilla luciferase gene, is located upstream of the target regions of interest cloned into the psiCHECK-2™ vector downstream of the Renilla gene. The region corresponding to the 3′-UTR of PCSK7 (926-nt sequences in length) that constituted the predicted miRNA response elements was PCR-amplified and cloned downstream of the Renilla luciferase gene in the psiCHECK-2™ vector (Promega, USA). […]
The HEK293T cells were co-transfected through the application of the wild-type psiCHECK-2, the wild-type PCSK7 3′-UTR, the mutant PCSK7 3′-UTR, and the miR-overexpressing vectors so that the direct interactions of the nominated miRNAs with PCSK7 3′-UTR could be investigated. […] Transfection efficiency was monitored by fluorescent microscopy (Nikon TE2000S, Japan) 36 hours following the procedure.
The PsiCHECK-2 reporter construct plasmid contained the Renilla luciferase gene upstream of PCSK7 3′-UTR and an independent firefly luciferase gene as an internal control for normalization. […] Then, LARII Reagent was added, and after 20 minutes, the firefly luciferase activity was measured as a control. Afterward, Renilla activity was determined using Stop & Glo Reagent. […]

human PCSK9 = assay: Western blot of PCSK9 protein in Huh7 cells co-transfected with miRNA vectors; format: cell-based; conditions: Huh7, selectivity control
Description: Western blot analysis was conducted to determine whether miR-125a-5p affected the functional activity of […] PC7 in Huh7 cells. A wild-type human PC7-overexpressing vector was co-transfected with pre-miR-125a-5p and pre-miR-224-5p-overexpressing plasmids in Huh7 cells. […] As control, a human PCSK9-overexpressing vector was co-transfected with miR-125a-5p and miR-224-5p vectors in Huh7 cells, whereby these miRNAs had no effect on the expression level of PCSK9 protein (not shown).

miR-125a-5p: miRNA targeting PCSK7 3′-UTR and exons 14 and 15, overexpressed from pEGFP-C1 precursor vector (UCCCUGAGACCCUUUAACCUGUGA; miRNA expressed from a pEGFP-C1 precursor vector, further chemistry not given here)
ability of PC7 to shed hTfR1 into the media (PC7): led to a decline
reduction of relative luciferase activity [1]: ~50%
expression level of PCSK9 protein (human PCSK9): no effect
